Columns and labels:
HEK 293 cells = experiment: Transient LINE1 reporter assay, Renilla luciferase (RLuc) control readout for potential cell toxicity; type: cell-based; settings: even at the highest dose tested (100 μM), FIG. 1
Procedure: (§1) Intron-disrupted Firefly luciferase (FLuc) expression cassettes were generated as described by Xie, Y. et al. “Characterization of L1 retrotransposition with high-throughput dual-luciferase assays,” Nucleic Acid Res. (2011) Vol. 39, No. 3, e16. In addition, the plasmid contained an intact Renilla luciferase (RLuc) expression cassette on the vector backbone, in order to normalize transfection efficiency and measure potential cell toxicity.
(§2) HEK 293 cells were seeded in 96-well plates at 1,000 cells/well in 55 μL and grown for 24 hours. Cells were transfected with FuGeneHD (Promega) following the manufacturer's protocol. Each well received 0.133 ng plasmid, 0.4 μL FuGeneHD reagent, and 4.5 μL GlutaMAX-I-supplemented Opti-MEM I reduced-serum medium (Invitrogen). Cells were simultaneously treated with test compound serially diluted starting at 100 μM in a 3-fold dilution dose response.
(§3) Luminescence was measured using the Dual-Glo Luciferase Assay System (Promega) following the manufacturer's instructions. The ratio between FLuc and RLuc gene expression was used to report LINE1 activity.

[1] = target: T1, LINE1 reverse transcriptase (Homo sapiens, UniProt O00370); experiment: Transient artificial-intron Cis LINE1 reporter assay (FLuc/RLuc ratio); type: cell-based; design: expressed in transfected cells; settings: HEK 293 cells
Procedure: as §1, §2, §3

[2] = target: T1, LINE1 reverse transcriptase; experiment: Stable artificial-intron Cis LINE1 reporter assay in HeLa Tet-On 3G cells; type: cell-based; design: expressed in transfected cells; host or cells: HeLa Tet-On 3G (Takara, cat no 631183)
From the text: A stable HeLa Tet-On 3G (Takara, cat no 631183) cell line expressing a bi-directional inducible LINE1 construct was generated as described in Xie, Y. et al. “Cell division promotes efficient retrotransposition in a stable L1 reporter cell line,” Mobile DNA (2013) 4:10. Single cell clones were screened for high Luciferase expression and the highest expression Firefly expressing clone was chosen for compound testing.
Test compounds were serially diluted in DMSO and spotted in 96-well plates. Subsequently the HeLa L1 artificial-intron reporter cells were plated into the compound-containing wells (8,000 cells/well), and the cells were induced for reporter expression with doxycycline (Sigma cat no D9891) at a final concentration of 500 ng/mL. Luminescence was measured 72 h after plating using the Dual-Glo Luciferase Assay System (Promega cat no E2940) following the manufacturer's instructions. The Firefly Luciferase activity was used to report LINE1 activity.

[3] = target: T2, HERV-K reverse transcriptase (2-596)-8His protein (Homo sapiens, UniProt V9H0F6); experiment: Homogeneous time-resolved fluorescence (HTRF) HERV-K RT assay; type: biochemical; settings: tested as tri(ammonium) salt, read-out: IC50 for inhibition of HERV-K reverse transcriptase
T2 construct: fused on or other part: C-terminal 8His tag
Procedure: The HERV-K reverse transcriptase homogeneous time-resolved fluorescence (HTRF) assay was performed in a 384-well format with HERV-K reverse transcriptase (2-596)-8His protein. Baculoviruses were created using Bac-to-Bac technology (Invitrogen). pFastBac donor plasmids containing HERV-K reverse transcriptase sequence (NCBI GenBank number AAC63291.1, J. Virology (1999) Vol. 73, No. 3, pp. 2365-2375) were transformed into DH10 Bac cells following the manufacturer's instructions. Recombinant bacmids were then isolated clonally and transfected into SF9 cells with lipofectin. HERV-K reverse transcriptase was expressed in the SF9 insect cells and then purified using immobilized metal affinity chromatography (IMAC) followed by size-exclusion chromatography (SEC). […]
(§4) After incubating at 25° C. for 30 minutes, the detection reagent 20 mM EDTA with streptavidin-terbium cryptate (Cisbio Bioassay) in the PPI buffer (Cisbio Bioassay) was added, and the mixture was incubated at 25° C. for 60 minutes. At the end of the incubation, fluorescence was read at ex/em=337/485 nm and ex/em=337/520 nm on an Envision 2104 plate reader (Perkin Elmer). The fluorescence ratio at 520/485 nm was used for the calculation. […] The IC50 was calculated by fitting the compound dose inhibition curve with a 4-parameter non-linear regression equation.

[4] = target: T3, recombinant MBP-tagged LINE1 protein (238-1061) (Homo sapiens, UniProt O00370); experiment: Homogeneous time-resolved fluorescence (HTRF) LINE1 RT assay; type: biochemical; settings: tested as tri(ammonium) salt, read-out: IC50 for inhibition of LINE1 reverse transcriptase
T3 construct: recombinant MBP-tagged LINE1 protein (238-1061); made in house
Procedure: The LINE1 reverse transcriptase homogeneous time-resolved fluorescence (HTRF) assay was performed with recombinant MBP-tagged LINE1 protein (238-1061) (generated and purified according to procedures in Dai L. et al. BMC Biochemistry 2011; 12:18) in a 384-well format. Test compound was serially diluted in DMSO and further diluted in the assay buffer (50 mM Tris-HCl, 50 mM KCl, 10 mM MgCl2, 10 mM DTT, pH 8.1) to achieve a final DMSO concentration of 1%. The serially diluted compound was mixed with 64 ng/well of LINE1 enzyme, 5 nM of pre-annealed template/biotin-primer pair (synthesized at Generay Biotechnology), 10 nM of Fluorescein-12-dATP fluorescent probe (Perkin Elmer), and 1 μM dGTP/dCTP/dTTP (Thermo Fisher Scientific) in the assay buffer. The template/biotin-primer sequences were as follows:
as §4, with “for 60” for “for 30”, “reagent (20” for “reagent 20”, “streptavidin-terbium cryptate, Cisbio” for “streptavidin-terbium cryptate (Cisbio”, “for 30” for “for 60”

[5] = HeLa L1 artificial-intron reporter cells, doxycycline induced, 72 h, Firefly luciferase, read-out: IC50
[6] = transient LINE1 reporter, Table 5 of Example 1, read-out: IC50

T2 sequence (V9H0F6 entry or part of it): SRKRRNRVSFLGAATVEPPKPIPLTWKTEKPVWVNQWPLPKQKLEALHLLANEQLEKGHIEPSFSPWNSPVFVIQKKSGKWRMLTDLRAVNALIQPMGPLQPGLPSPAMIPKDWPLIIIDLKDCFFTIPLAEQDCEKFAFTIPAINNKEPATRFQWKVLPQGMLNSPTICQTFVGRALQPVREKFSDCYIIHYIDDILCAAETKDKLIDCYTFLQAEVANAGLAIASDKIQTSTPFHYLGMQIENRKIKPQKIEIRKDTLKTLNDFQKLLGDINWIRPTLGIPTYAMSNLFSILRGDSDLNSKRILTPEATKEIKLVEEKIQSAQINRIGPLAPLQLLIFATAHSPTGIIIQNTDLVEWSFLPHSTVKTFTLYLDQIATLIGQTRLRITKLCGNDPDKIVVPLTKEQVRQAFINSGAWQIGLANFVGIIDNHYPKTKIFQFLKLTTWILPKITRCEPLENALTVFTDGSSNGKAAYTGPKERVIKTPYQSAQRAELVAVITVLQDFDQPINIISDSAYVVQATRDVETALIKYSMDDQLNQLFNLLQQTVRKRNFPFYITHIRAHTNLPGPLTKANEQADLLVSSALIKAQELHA

SMILES: Nc1ncnc2c1ncn2[C@@H]1O[C@H](OCP(=O)(O)O)C=C1F [Test Compound]
- impact on RLuc expression (Renilla) (HEK 293 cells): without any material impact
- IC50 ([1]; transient transfection, FIG. 1, read-out: IC50 for inhibition of FLuc (FF/RR)): 1000 nM

SMILES: Nc1nc(F)nc2c1ncn2[C@@H]1O[C@H](OCP(=O)(O)O)C=C1F [Compound V-1, sodium ((((2R,5R)-5-(6-amino-2-fluoro-9H-purin-9-yl)-4-fluoro-2,5-dihydrofuran-2-yl)oxy)methyl)phosphonate]
- IC50 [2, 5]: > 500 nM

SMILES: Nc1ncnc2c1ncn2[C@@H]1O[C@H](OCP(=O)(O)OP(=O)(O)OP(=O)(O)O)C=C1F [IV-1]
- IC50 [3]: 120 nM
- IC50 [4]: 100 nM

SMILES: CCOC(=O)[C@H](C)N[P@](=O)(CO[C@@H]1C=C(F)[C@H](n2cnc3c(N)ncnc32)O1)Oc1ccccc1 [II-1, ethyl ((S)-((((2R,5R)-5-(6-amino-9H-purin-9-yl)-4-fluoro-2,5-dihydrofuran-2-yl)oxy)methyl)(phenoxy)phosphoryl)-L-alaninate]
- IC50 [2, 5]: < 50 nM
- IC50 [1, 6]: < 50 nM

SMILES: CCOC(=O)[C@H](C)NP(=O)(CO[C@@H]1C=C(F)[C@H](n2cnc3c(N)nc(F)nc32)O1)Oc1ccccc1 (stereo partly drawn) [Compound V-2, ethyl (2S)-2-[({[(2R,5R)-5-(6-amino-2-fluoropurin-9-yl)-4-fluoro-2,5-dihydrofuran-2-yl]oxy}methyl(phenoxy)phosphoryl)amino]propanoate]
- IC50 [2]: > 500 nM

SMILES: Nc1ncnc2c1ncn2[C@@H]1O[C@H](OCP(=O)(O)O)C=C1F [III-1, Sodium ((((2R,5R)-5-(6-amino-9H-purin-9-yl)-4-fluoro-2,5-dihydrofuran-2-yl)oxy)methyl)phosphonate]
- IC50 [2, 5]: > 500 nM

SMILES: CCOC(=O)[C@H](C)N[P@@](=O)(CO[C@@H]1C=C(F)[C@H](n2cnc3c(N)ncnc32)O1)Oc1ccccc1 [II-2, ethyl ((R)-((((2R,5R)-5-(6-amino-9H-purin-9-yl)-4-fluoro-2,5-dihydrofuran-2-yl)oxy)methyl)(phenoxy)phosphoryl)-L-alaninate]
- IC50 [2, 5]: < 50 nM
- IC50 [1, 6]: < 50 nM

Reference: patent publication US20240261317A1, “METHODS OF TREATING MEDICAL CONDITIONS AND INHIBITING LINE1 REVERSE TRANSCRIPTASEUSING A SUBSTITUTED 4-FLUORO-2,5-DIHYDROFURANYL PHOSPHONIC ACID OR RELATED COMPOUND” (ROME Therapeutics, Inc., priority 2021, published 2024)
